Columns and labels:
[1] = biological target: RORγ LBD (Homo sapiens (Human), UniProt P51449); experiment: ROR gamma radio-ligand binding assay (3H 25-Hydroxycholesterol competitive displacement, dextran charcoal method); conditions: for inhibition at 1 µM / RORγ ligand binding assay: % inhibition @1 μM: 1 μM compound; for inhibition at 10 µM / RORγ ligand binding assay: % inhibition @ 10 μM: 10 μM compound; for IC50: in range
Method: Gene corresponding to the ligand binding domain of RORγ (247-497 amino acids) was sub-cloned into pGEX4T1 vector. Transformants of E. coli BL21 (DE3) containing pGEX4T1-RORγ (247-497) were grown to an OD of 0.8 at 37° C. and induced with 0.5 mM isopropyl-β-D-thiogalactopyranoside (IPTG) for 18 hours at 18° C. Cells were harvested and resuspended in 20 mM Tris-HCl (pH 8.5), 0.3 M NaCl, 10% Glycerol, 2 mM β-Me (β-Mercaptoethanol), 2 mM CHAPS, protease inhibitors, 0.6 mM PMSF and Lysozyme. Supernatant of lysate was passed through glutathione sepharose 4B affinity beads (GE health care) pre-equilibrated with 20 mM Tris-HCl (pH 8.5), 0.3 M NaCl, 10% Glycerol, 2 mM β-Me. RORγ was eluted using a gradient of reduced glutathione (3-20 mM). Fractions containing RORγ protein were pooled, concentrated and passed through Superdex 75 gel filtration (GE health care) column equilibrated with 20 mM Na-phosphate pH 8.0, 0.2 M NaCl, 10% glycerol. The peak fractions from gel filtration column were pooled and stored at −80° C. for Binding assay.
ROR gamma radioligand binding was performed using ^3H 25-Hydroxycholesterol in a competitive displacement assay using dextran charcoal method. Using 5 nM ^3H 25-Hydroxycholesterol with 300 ng RORγ LBD (in house expressed in E. coli) along with the compound were incubated in the binding buffer (50 mM HEPES, pH 7.5, 150 mM NaCl, 0.01% BSA and 5 mM MgCl2) for 30 min at room temperature. Then dextran-charcoal mixture (0.5% charcoal: 0.05% dextran) was used for separation and the supernatant was read on the Perkin Elmer Trilux Microbeta counter. Dose response curves were generated for 10 compound concentrations using GraphPad Prism software Version 5 (San Diego, Calif., USA) using non-linear regression curve fit for sigmoidal dose response (variable slope).

[2] = biological target: ROR gamma ligand binding domain (Homo sapiens (Human), UniProt P51449); experiment: ROR gamma luciferase reporter assay (GAL4-ROR gamma LBD, HEK293 cells); type: cell-based; conditions: 48 hours treatment, read-out: RORγ luciferase Reporter assay: IC50 (nM) (in range)
Chain of ROR gamma ligand binding domain (P51449 269-508): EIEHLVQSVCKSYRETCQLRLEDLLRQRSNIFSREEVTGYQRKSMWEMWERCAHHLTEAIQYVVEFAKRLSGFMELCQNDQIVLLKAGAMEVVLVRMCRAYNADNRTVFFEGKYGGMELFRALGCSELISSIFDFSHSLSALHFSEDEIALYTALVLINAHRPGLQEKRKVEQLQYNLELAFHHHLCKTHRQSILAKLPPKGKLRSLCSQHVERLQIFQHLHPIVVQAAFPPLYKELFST
Method: The Ligand Binding Domain (LBD) of ROR gamma was cloned into pFN26A (BIND) hRluc-neo Flexi vector (Promega) which expresses a fusion protein comprised of a DNA binding domain of the yeast GAL4 gene, a linker segment and ROR gamma ligand binding domain. For the reporter assay 0.02×10^6 HEK293 cells were seeded per well in a 96 well plate in complete media and incubated overnight in an incubator with 5% CO2 at 37° C. before transfection. Cells were then co-transfected with pFN26A hRluc-neo Flexi vector containing the LBD of ROR gamma and pGL4.35 [luc2P/9XGAL4 UAS/Hygro] Vector (Promega) in low serum media. Post transfection and recovery, cells were treated with the test compounds for 48 hours. The assay was terminated using the Bright-Glo Luciferase assay system from Promega and the Luminescence was measured using a luminescence reader. The luminescence values were used to calculate the potency of the compounds.

Chain of RORγ LBD (P51449 268-518): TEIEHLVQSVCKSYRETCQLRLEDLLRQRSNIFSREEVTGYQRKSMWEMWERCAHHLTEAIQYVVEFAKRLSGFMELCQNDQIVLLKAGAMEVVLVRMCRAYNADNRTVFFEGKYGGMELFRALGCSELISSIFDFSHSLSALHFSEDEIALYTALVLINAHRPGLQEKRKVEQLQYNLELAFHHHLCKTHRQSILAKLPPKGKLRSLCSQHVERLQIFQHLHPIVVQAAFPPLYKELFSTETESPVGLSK

Compound CCS(=O)(=O)c1ccc(CC(=O)Nc2cc(C)c3c(n2)CCC(C)(c2cc(OC)ccn2)C3=O)cc1 (centres unmarked) [Compound 22, 2-(4-(ethylsulfonyl)phenyl)-N-(6-(4-methoxypyridin-2-yl)-4,6-dimethyl-5-oxo-5,6,7,8-tetrahydroquinolin-2-yl)acetamide] has an inhibition at 1 µM [1] of 76%, an inhibition at 10 µM [1] of 95% and an IC50 [2] of 100 to 500 nM.

CCS(=O)(=O)c1ccc(CC(=O)Nc2ccc3c(n2)CCC(C)(c2nccn4cc(C)nc24)C3=O)cc1 (single isomer, unassigned) [Compound-105, 2-(4-(ethylsulfonyl)phenyl)-N-(6-methyl-6-(2-methylimidazo[1,2-a]pyrazin-8-yl)-5-oxo-5,6,7,8-tetrahydroquinolin-2-yl)acetamide] was tested, and the “RORγ ligand binding assay: % inhibition @1 μM” value [1] was 100%, the “RORγ ligand binding assay: % inhibition @ 10 μM” value [1] was 97% and the IC50 [1] was under 0.15 µM. For the same compound, the IC50 [2] was under 100 nM.

CCS(=O)(=O)c1ccc(CC(=O)Nc2cc(C)c3c(n2)CCC(C)(c2nccn4ccnc24)C3=O)cc1 (centres unmarked) [Compound 26, 2-(4-(ethylsulfonyl)phenyl)-N-(6-(imidazo[1,2-a]pyrazin-8-yl)-4,6-dimethyl-5-oxo-5,6,7,8-tetrahydroquinolin-2-yl)acetamide] was tested, and the inhibition at 1 µM [1] was 65%, the inhibition at 10 µM [1] was 99% and the IC50 [1] was over 0.3 µM. The IC50 [2] was 100 to 500 nM.

With CCS(=O)(=O)c1ccc(CC(=O)Nc2cc(C)c3c(n2)CCC(C)(c2nc(C)cc(C)n2)C3=O)cc1 (centres unmarked) [Compound 29, N-(6-(4,6-dimethylpyrimidin-2-yl)-4,6-dimethyl-5-oxo-5,6,7,8-tetrahydroquinolin-2-yl)-2-(4-(ethylsulfonyl)phenyl)acetamide] the inhibition at 1 µM [1] was 84%, the inhibition at 10 µM [1] was 91% and the IC50 [1] was 0.15 to 0.3 µM. It also gave an IC50 [2] of under 100 nM.

For CCS(=O)(=O)c1ccc(CC(=O)Nc2ccc3c(n2)CCC(C)(c2ccnc(C(C)C)n2)C3=O)cc1 (centres unmarked) [Compound 50, 2-(4-(ethylsulfonyl)phenyl)-N-(6-(2-isopropylpyrimidin-4-yl)-6-methyl-5-oxo-5,6,7,8-tetrahydroquinolin-2-yl)acetamide], the inhibition at 1 µM [1] was 91%, the inhibition at 10 µM [1] was 90% and the IC50 [1] was under 0.15 µM. It also gave an IC50 [2] of 100 to 500 nM.

CCS(=O)(=O)c1ccc(CC(=O)Nc2cc(C)c3c(n2)CCC(C)(c2ccc(OC)nn2)C3=O)cc1 (single isomer, unassigned) [compound 110, 2-(4-(ethylsulfonyl)phenyl)-N-(6-(6-methoxypyridazin-3-yl)-4,6-dimethyl-5-oxo-5,6,7,8-tetrahydroquinolin-2-yl)acetamide] was tested, and the “RORγ ligand binding assay: % inhibition @1 μM” value [1] was 100%, the “RORγ ligand binding assay: % inhibition @ 10 μM” value [1] was 81% and the IC50 [2] was under 100 nM.

CCS(=O)(=O)c1ccc(CC(=O)Nc2ccc3c(n2)CCC(C)(c2ccc(C)s2)C3=O)cc1 (centres unmarked) [Compound 45, 2-(4-(ethylsulfonyl)phenyl)-N-(6-methyl-6-(5-methylthiophen-2-yl)-5-oxo-5,6,7,8-tetrahydroquinolin-2-yl)acetamide] was tested, and the inhibition at 1 µM [1] was 66%, the inhibition at 10 µM [1] was 73% and the IC50 [2] was under 100 nM.

Cc1cc(NC(=O)Cc2ccc(S(C)(=O)=O)cc2)nc2c1C(=O)C(C)(c1ncccc1O)CC2 (centres unmarked) [Compound 89, N-(6-(3-hydroxypyridin-2-yl)-4,6-dimethyl-5-oxo-5,6,7,8-tetrahydroquinolin-2-yl)-2-(4-(methylsulfonyl)phenyl)acetamide] showed an inhibition at 1 µM [1] of 53%, an inhibition at 10 µM [1] of 79% and an IC50 [1] of over 0.3 µM. The IC50 [2] was over 500 nM.

In the case of CCS(=O)(=O)c1ccc(CC(=O)Nc2cc(C)c3c(n2)CCC(C)(c2nccc(OC)n2)C3=O)cc1 (centres unmarked) [Compound 21, 2-(4-(ethylsulfonyl)phenyl)-N-(6-(4-methoxypyrimidin-2-yl)-4,6-dimethyl-5-oxo-5,6,7,8-tetrahydroquinolin-2-yl)acetamide], the inhibition at 1 µM [1] is reported as 94%, the inhibition at 10 µM [1] is reported as 92% and the IC50 [1] is reported as 0.15 to 0.3 µM. For the same compound, the IC50 [2] was under 100 nM.

CCC1(c2nccn3ccnc23)CCc2nc(NC(=O)Cc3ccc(S(=O)(=O)CC)cc3)ccc2C1=O (centres unmarked) [Compound 14, N-(6-ethyl-6-(imidazo[1,2-a]pyrazin-8-yl)-5-oxo-5,6,7,8-tetrahydroquinolin-2-yl)-2-(4-(ethylsulfonyl)phenyl)acetamide] was tested, and the inhibition at 1 µM [1] was 0%, the inhibition at 10 µM [1] was 26% and the IC50 [2] was over 500 nM.

Work on CCS(=O)(=O)c1ccc(CC(=O)Nc2cc(C)c3c(n2)CCC(C)(c2ccc(OC)nn2)C3=O)cc1 (centres unmarked) [Compound 31, 2-(4-(ethylsulfonyl)phenyl)-N-(6-(6-methoxypyridazin-3-yl)-4,6-dimethyl-5-oxo-5,6,7,8-tetrahydroquinolin-2-yl)acetamide] yielded an inhibition at 1 µM [1] of 90%, an inhibition at 10 µM [1] of 88% and an IC50 [1] of under 0.15 µM. It also gave an IC50 [2] of under 100 nM.

For CCS(=O)(=O)c1ccc(CNC(=O)c2ccc3c(n2)CCC(C)(c2cc(C)nc(C)n2)C3=O)cc1 (single isomer, unassigned) [compound 125, 6-(2,6-dimethylpyrimidin-4-yl)-N-(4-(ethylsulfonyl)benzyl)-6-methyl-5-oxo-5,6,7,8-tetrahydroquinoline-2-carboxamide], the IC50 [2] was under 100 nM.

CCS(=O)(=O)c1ccc(CC(=O)Nc2cc(C)c3c(n2)CCC(C)(c2ccc4nc(C)cn4n2)C3=O)cc1 (centres unmarked) [Compound 75, N-(4,6-dimethyl-6-(2-methylimidazo[1,2-b]pyridazin-6-yl)-5-oxo-5,6,7,8-tetrahydroquinolin-2-yl)-2-(4-(ethylsulfonyl)phenyl)acetamide] gave an IC50 [2] of 100 to 500 nM.

For CCS(=O)(=O)c1ccc(CC(=O)Nc2ccc3c(n2)CCC(C)(c2nc(C)cn4ccnc24)C3=O)cc1 (single isomer, unassigned) [compound 117, 2-(4-(ethylsulfonyl)phenyl)-N-(6-methyl-6-(6-methylimidazo[1,2-a]pyrazin-8-yl)-5-oxo-5,6,7,8-tetrahydroquinolin-2-yl)acetamide], the IC50 [2] was over 500 nM.

CCS(=O)(=O)c1ccc(CC(=O)Nc2ccc3c(n2)CCC(C)(c2cc(OC)nc(C)n2)C3=O)cc1 (single isomer, unassigned) [compound 115, 2-(4-(ethylsulfonyl)phenyl)-N-(6-(6-methoxy-2-methylpyrimidin-4-yl)-6-methyl-5-oxo-5,6,7,8-tetrahydroquinolin-2-yl)acetamide] gave an IC50 [2] of under 100 nM.

CCS(=O)(=O)c1ccc(CC(=O)Nc2cc(C)c3c(n2)CCC(C)(c2nnc(OC)cc2C)C3=O)cc1 (centres unmarked) [Compound 95, 2-(4-(ethylsulfonyl)phenyl)-N-(6-(6-methoxy-4-methylpyridazin-3-yl)-4,6-dimethyl-5-oxo-5,6,7,8-tetrahydroquinolin-2-yl)acetamide] showed an IC50 [2] of over 500 nM.

Compound CCS(=O)(=O)c1ccc(CC(=O)Nc2ccc3c(n2)CCC(C)(c2cc(C)nc(OC)n2)C3=O)cc1 (centres unmarked) [Compound 64, 2-(4-(ethylsulfonyl)phenyl)-N-(6-(2-methoxy-6-methylpyrimidin-4-yl)-6-methyl-5-oxo-5,6,7,8-tetrahydroquinolin-2-yl)acetamide] has an IC50 [2] of under 100 nM.

With CCS(=O)(=O)c1ccc(CC(=O)Nc2cc(C)c3c(n2)CCC(C)(c2ccc(C(F)(F)F)nn2)C3=O)cc1 (centres unmarked) [Compound 53, N-(4,6-dimethyl-5-oxo-6-(6-(trifluoromethyl)pyridazin-3-yl)-5,6,7,8-tetrahydroquinolin-2-yl)-2-(4-(ethylsulfonyl)phenyl)acetamide] the IC50 [2] was over 500 nM.

Source: patent publication US11229636B2, “Substituted tetrahydroquinolinone compounds as ROR gamma modulators” (Aurigene Discovery Technologies Limited, priority 2015, dated 2022)
